Assay: Example 33: Film A (no incorporated booster) in Developer A versus Film B (Compound XIII) in Developer B, 80 seconds at 30° C.
Details: Table III data
Experimental: This example was carried out using photographic elements similar to those of Examples 1 to 32 except that the nucleating agent employed was a mixture of the hydrazine compound: [drawing 33] at a coverage of 0.0121 g/m^2 and the hydrazine compound: [drawing 34] at a coverage of 0.00237 g/m^2.
A film designated Film A was prepared with no incorporated booster compound, while a film designated Film B contained 0.0861 g/m^2 of Compound XIII. A developing solution, designated Developer A, was formulated from the following ingredients: […]
A second developing solution, designated Developer B, differed from Developer A in that the 3-diethylamino-1,2-propanediol was omitted.
Film A was developed in Developer A at a pH of 11.6 for 80 seconds at 30° C. Film B was developed in Developer B for 80 seconds at 30° C. at pH levels of 11.6, 11.5 and 11.4. The pH's of the developing solutions were adjusted to the designated levels using concentrated potassium hydroxide and concentrated hydrochloric acid.

CCN(CC)CC(O)CO (stereo not shown) [3-diethylamino-1,2-propanediol]
booster activity (in words): highly effective booster compound
